Results on six compounds are retold here after patent publication EP4603105A1, “PHARMACEUTICAL COMPOSITION CONTAINING CYCLIC COMPOUND HAVING SELECTIVE KRAS INHIBITORY EFFECT AGAINST HRAS AND NRAS” (CHUGAI SEIYAKU KABUSHIKI KAISHA, priority 2022, dated 2024).

Experiment [1] concerns the target GDP-bound NRAS wild-type protein (Homo sapiens, UniProt P01111). The experiment in a line: Binding to NRAS by surface plasmon resonance (SPR), KD and KD ratio to KRAS. The settings on record: ratio of KD value for GDP-bound NRAS wild-type protein to KD value for KRAS (SPR). In outline: (§1)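 Measured at 30°C: SPR with GDP-loaded, E. coli-expressed biotin-Avi RAS captured (~100–300 RU), ascending 75 s compound injections, HBS pH 7.4 with GDP, MgCl2, 4% DMSO. KD from 1:1 fit.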

Experiment [2] addresses HRAS wild-type protein (Homo sapiens, UniProt P01112). The experiment in a line: Binding to HRAS by surface plasmon resonance (SPR), KD and KD ratio to KRAS. The settings on record: ratio of KD value for HRAS wild-type protein to KD value for KRAS (SPR). The essentials:
as §1
On the technique in general: Surface plasmon resonance follows binding to a sensor surface in real time, without labels.

The subject of experiment [3] is human lung cancer strain NCI-H441. The experiment is classed as cell-based. In outline: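 Signal came from […] measured per well once the reagent was added. Beforehand, cells were cultured at 37°C and 5% carbon dioxide on a compound series serially diluted in dimethyl sulfoxide.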

Sequence of GDP-bound NRAS wild-type protein (P01111 whole entry): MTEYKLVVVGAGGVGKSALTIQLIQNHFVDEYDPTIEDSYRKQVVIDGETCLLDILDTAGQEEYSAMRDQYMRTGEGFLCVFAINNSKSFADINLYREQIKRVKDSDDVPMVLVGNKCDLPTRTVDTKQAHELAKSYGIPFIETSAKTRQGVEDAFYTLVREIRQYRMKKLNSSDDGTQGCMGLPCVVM
Sequence of HRAS wild-type protein (P01112 whole entry): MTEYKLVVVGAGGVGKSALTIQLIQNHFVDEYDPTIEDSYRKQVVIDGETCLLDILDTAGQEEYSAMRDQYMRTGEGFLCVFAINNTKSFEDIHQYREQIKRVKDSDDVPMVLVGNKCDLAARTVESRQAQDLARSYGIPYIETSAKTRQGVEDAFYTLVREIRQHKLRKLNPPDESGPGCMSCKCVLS

As to `CCC[C@H]1C(=O)N[C@@H]([C@@H](C)CC)C(=O)N(CCC)CC(=O)N(C)[C@H]2C/C=C\CCN(C2=O)[C@@H](Cc2ccc(C(F)(F)F)cc2)C(=O)N(C)CC(=O)N[C@@H](CCc2cc(F)c(C(F)(F)F)c(F)c2)C(=O)N2C[C@H](OCC)C[C@H]2C(=O)NC2(CCC2)C(=O)N(C)[C@@H](C2CCCC2)C(=O)N(C)[C@H](C(=O)N(C)C)CC(=O)N1C` [PP1767], the “NRAS /KRAS” value in experiment [1] is “A (a compound having 10 or more and less than 20 is denoted as A)”. Also, the “HRAS /KRAS” value in experiment [2] is “B (a compound having 3 or more and less than 10 is denoted as B)”. In addition, it took 17.9 nM to reach half-maximal inhibition in experiment [3] (IC50).

For the compound `CCO[C@@H]1C[C@H]2C(=O)NC3(CC(C)(C)C3)C(=O)N(C)[C@@H](C3CCCC3)C(=O)N(CC)[C@H](C(=O)N(C)C)CC(=O)N(C)[C@@H](CC)C(=O)N[C@@H]([C@@H](C)CC)C(=O)N(C)CC(=O)N(C)[C@H]3C/C=C\CCN(C3=O)[C@@H](Cc3ccc(C(F)(F)F)cc3)C(=O)N(C)CC(=O)N[C@@H](CCc3cc(F)c(C(F)(F)F)c(F)c3)C(=O)N2C1` [PP1768], in experiment [1], the “NRAS /KRAS” value was “A (a compound having 10 or more and less than 20 is denoted as A)”. In addition, in experiment [2], the “HRAS /KRAS” value is “A (a compound having 10 or more and less than 20 is denoted as A)”. In addition, the IC50 in experiment [3] was determined as 4.9 nM.

As to `CCC[C@H]1C(=O)N[C@@H]([C@@H](C)CC)C(=O)N(C)CC(=O)N(C)[C@H]2C/C=C\CCN(C2=O)[C@@H](Cc2ccc(C(F)(F)F)cc2)C(=O)N(C)CC(=O)N[C@@H](CCc2cc(F)c(C(F)(F)F)c(F)c2)C(=O)N2C[C@H](OCC)C[C@H]2C(=O)NC2(CCC2)C(=O)N(C)[C@@H](C2CCCC2)C(=O)N(CCC)[C@H](C(=O)N(C)C)CC(=O)N1C` [PP1769], the “NRAS /KRAS” value in experiment [1] is “A (a compound having 10 or more and less than 20 is denoted as A)”. In experiment [2], the “HRAS /KRAS” value is “A (a compound having 10 or more and less than 20 is denoted as A)”. For the same compound, it took 12.9 nM to reach half-maximal inhibition in experiment [3] (IC50).

Regarding `CCO[C@@H]1C[C@H]2C(=O)NC3(CC(C)(C)C3)C(=O)N(C)[C@@H](C3CCCC3)C(=O)N(C)[C@H](C(=O)N(C)CC)CC(=O)N(C)[C@@H](CC(C)C)C(=O)N[C@@H]([C@@H](C)CC)C(=O)NCC(=O)N(C)[C@H]3C/C=C\CCN(C3=O)[C@@H](Cc3ccc(C(F)(F)F)cc3)C(=O)N(C)CC(=O)N[C@@H](CCc3cc(F)c(C(F)(F)F)c(F)c3)C(=O)N2C1` [PP1771], the “NRAS /KRAS” value in experiment [1] is “A (a compound having 10 or more and less than 20 is denoted as A)”. Besides, the “HRAS /KRAS” value in experiment [2] is “A (a compound having 10 or more and less than 20 is denoted as A)”. The compound further gave an IC50 in experiment [3] of 6.6 nM.

Consider `CCO[C@@H]1C[C@H]2C(=O)NC3(CC(C)(C)C3)C(=O)N(C)[C@@H](C3CCCC3)C(=O)N(C)[C@H](C(=O)N(C)C)CC(=O)N(CC)[C@@H](CC(C)C)C(=O)N[C@@H]([C@@H](C)CC)C(=O)NCC(=O)N(C)[C@H]3C/C=C\CCN(C3=O)[C@@H](Cc3ccc(C(F)(F)F)cc3)C(=O)N(C)CC(=O)N[C@@H](CCc3cc(F)c(C(F)(F)F)c(F)c3)C(=O)N2C1` [PP1772], for which, in experiment [1], the “NRAS /KRAS” value is “B (a compound having 3 or more and less than 10 is denoted as B)”. The “HRAS /KRAS” value in experiment [2] was “B (a compound having 3 or more and less than 10 is denoted as B)”. Further, half-maximal inhibition in experiment [3] (IC50) was put at 13.4 nM.

As to `CCO[C@@H]1C[C@H]2C(=O)NC3(CC(C)(C)C3)C(=O)N(C)[C@@H](C3CCCC3)C(=O)N(CC)[C@H](C(=O)N(C)C)CC(=O)N(C)[C@@H](CC(C)C)C(=O)N[C@@H]([C@@H](C)CC)C(=O)NCC(=O)N(C)[C@H]3C/C=C\CCN(C3=O)[C@@H](Cc3ccc(C(F)(F)F)cc3)C(=O)N(C)CC(=O)N[C@@H](CCc3cc(F)c(C(F)(F)F)c(F)c3)C(=O)N2C1` [PP1773], the “NRAS /KRAS” value in experiment [1] is “A (a compound having 10 or more and less than 20 is denoted as A)”. For the same compound, the “HRAS /KRAS” value in experiment [2] was “A (a compound having 10 or more and less than 20 is denoted as A)”. Also, in experiment [3], the IC50 turned out to be 39.9 nM.

Broadly, the IC50 is the midpoint of a concentration-inhibition curve. A high value points to lower potency.
